Values of other authors in patent US9663462B2, “Anti-parasitic methods and compositions utilizing diindolylmethane-related indoles” (BioResponse, L.L.C., priority 2006, dated 2017).

Tests used:
NFκB signaling pathway = conditions: breast cancer cells
rainbow trout = conditions: in vivo
[1] = system: chemically induced forms of breast cancer; conditions: orally administered, animals
[2] = molecular target: Leishmania donovani topoisomerase I (LdTOPILS); conditions: read-out: IC50, inhibition of Leishmania donovani topoisomerase I (LdTOPILS)
[3] = system: Human Papilloma Virus (HPV) oncogene altered cervical cancer cell lines
[4] = metabolic half life of DIM
[5] = system: Mitogen Activated Protein Kinase (MAPK) cell signaling pathway; conditions: cell culture
[6] = system: estrogen-dependent and independent breast cancer cells; conditions: isolated DIM, cell culture
[7] = once formed from I3C

c1ccc2c(Cc3c[nH]c4ccccc34)c[nH]c2c1 [DIM, 3,3′-diindolylmethane]
estrogenic activity (breast cancer cells): estrogenic
activation of the NFκB signaling pathway (NFκB signaling pathway): reduce activation
estrogenic activity (rainbow trout): estrogenic
growth of chemically induced breast cancer [1]: inhibits the growth
IC50 [2]: 1200 nM
induction of apoptosis [3]: induce apoptosis
half-life [4]: 2 to 7 h
activation of MAPK cell signaling pathway [5]: activate
apoptosis promoting effects [6]: apoptosis promoting effects
stability in acid [7]: stable
